Test results reported in PMC4766439, “Discovery of novel PDE9 inhibitors capable of inhibiting Aβ aggregation as potential candidates for the treatment of Alzheimer’s disease” (Scientific Reports, 2016).
Like-named read-outs stand apart in the source and are kept apart here.

Assays:
PDE9A2 (181–506) = target: T1, PDE9A2 (181–506) (Homo sapiens, UniProt O76083); experiment: PDE activity assay, PDE9 catalytic domain; type: biochemical; conditions: means ± SD of at least three independent experiments
T1 construct: PDE9A2 (181–506)
Experimental: (§1) The enzymatic activities of the catalytic domains of PDE9 and other PDEs were measured by using cGMP or cAMP as substrates. The assay buffer contained 20–50 mM Tris–HCl (pH 7.5–8.0), 10 mM MgCl2 or 4 mM MnCl2, 1 mM DTT, and 10–20 nM ^3H-cGMP or ^3H-cAMP (20000–30000 cpm/assay, GE Healthcare). The reaction was performed at room temperature for 15 min and then terminated by the addition of 0.2 M ZnSO4. The addition of 0.25 M BaSO4 precipitated the generated ^3H-GMP, whereas the unreacted ^3H-cGMP remained in solution. The radioactivity in the supernatant was measured in 2.5 mL with an Ultim Gold liquid scintillation counter. […] The IC50 values were calculated by nonlinear regression method by using GraphPad Prism 5.0 Software.

[1] = Oxygen Radical Absorbance Capacity (ORAC-FL) assay; conditions: Trolox as standard
Experimental: The assays were performed in 75 mM PBS (pH 7.4) and all the tested compounds were dissolved in DMSO and diluted with the PBS. Trolox was used as a standard (1–10 μM final concentration). The tested compounds at different concentrations (20 μL, final concentration: 2 μM) and fluorescein (FL, 120 μL, final concentration: 300 nM) were placed in the wells of a black 96-well plate. The mixture was incubated for 10 min at 37 °C and then, APPH solution (60 μL, final concentration: 12 mM diluted by 75 mM PBS) was added rapidly. […] A blank (FL + AAPH), with PBS replacing the compounds and Trolox was used for calibration in each assay. The compounds were tested at different concentrations (0.5–10 μM). The experiments were performed in three independent runs for each sample. The fluorescence measurements were normalized to that of the blank (without antioxidant). The area under the fluorescence decay curve (AUC) was calculated using the following equation (eq. 2):
where f0 is the fluorescence reading at 0 min and fi is the fluorescence reading at time i. The net AUC was calculated by the expression AUCsample − AUCblank. Regression equations between net AUC and Trolox concentrations were calculated. The final results were expressed in μM of Trolox equivalent/μM of pure compounds.

Aβ1-42 [2] = target: T2, Aβ1-42 (Homo sapiens, UniProt P05067); experiment: ThT assay, inhibition of Cu^2+-induced Aβ1-42 aggregation; type: biochemical; conditions: [Aβ1-42] = 25 μM, compound 50 μM, [Cu^2+] = 25 μM, 37 °C, 24 h
T2 construct: the Aβ1-42 stock solution was diluted with HEPES buffer; purchased Sigma
Experimental: The Aβ1−42 sample (Sigma, US) was pretreated with hexafluoro-2-propanol (HFIP) and dissolved in ammonium hydroxide (1% v/v) to prepare a stock solution (2000 μM) that was aliquoted into small samples and stored at −80 °C.

[3] = PAMPA-BBB in vitro blood-brain barrier permeation assay; type: in vitro ADME; conditions: for Papp at 10 h, 100 μg/mL: PAMPA, read-out: Permeability; for prediction of penetration into the CNS: from PAMPA-BBB Pe
Experimental: The blood–brain barrier penetration capacity of the compounds was evaluated by using the parallel artificial membrane permeation assay (PAMPA). […] The porcine brain lipid (PBL) was obtained from Avanti Polar Lipids. The donor microplate (PVDF membrane, pore size of 0.45 nm) and the acceptor microplate were from Millipore. The acceptor 96-well microplate (COSTAR) was filled with 300 μL of a PBS/EtOH mixture (7:3) and the filter membrane was impregnated with 4 μL of PBL in dodecane (20 mg/mL). The compounds were dissolved in DMSO at a concentration of 5 mg/mL and diluted with the PBS/EtOH mixture (7:3) to a concentration of 100 μg /mL. Then, 200 μL of this solution was added to the donor wells and the wells were carefully placed on the acceptor plate, which was then incubated for 10 h at 25 °C in a vibrationless environment. After the incubation, the donor plate was removed and the concentration of compounds in the acceptor wells was determined with a UV plate reader (Flexstation 3). Each sample was analyzed at five wavelengths in four wells, and at least three independent runs were performed. The results are expressed as the mean ± standard deviation. In these experiments, 13 quality control standards of known BBB permeability were included to validate the analysis set.
where Vd is the volume in the donor well, Va is the volume in acceptor well, A is the filter area, t is the permeation time, [drug]acceptor is the absorbance of the compound in the acceptor well, and [drug]equilibrium is the theoretical equilibrium absorbance.

Aβ1-42 fibrils = target: T3, Aβ1-42 fibrils (Homo sapiens, UniProt P05067); experiment: ThT assay, disaggregation of Cu^2+-induced Aβ1-42 fibrils; type: biochemical; conditions: [Aβ1-42] = 25 μM, compound 50 μM, [Cu^2+] = 25 μM, additional 24 h
T3 construct: purchased Sigma
Experimental: For assaying the disaggregation of the copper (II)-induced Aβ1-42 fibrils, the Aβ1-42 stock solution was first diluted in HEPES buffer ([…], pH 6.6). The mixture of the peptide (10 μL, 25 μM final concentration) and copper (II) (10 μL, 25 μM final concentration) was then incubated at 37 °C for 24 h. Then, the test compound (10 μL, 50 μM final concentration) was added and incubated at 37 °C for an additional 24 h. Thereafter, 30 μL of the sample was diluted to a final volume of 200 μL with 50 mM glycine-NaOH buffer (pH 8.0) containing thioflavin-T (5 μM) in the dark. The detection method used was the same as that described above.

Aβ1-42 [4] = target: T2, Aβ1-42; experiment: Transmission electron microscopy (TEM) assay of Aβ1-42; type: biochemical; conditions: [Aβ1-42] = 25 μM, compound 50 μM, [Cu^2+] = 25 μM, 37 °C, 24 h
Experimental: The assays were performed as reported previously. For the TEM assay of copper (II)-induced Aβ1-42 aggregation and the disaggregation of the fibrils, the samples were pretreated as described for the ThT assay. Samples (10 μL) were placed on a carbon-coated copper/rhodium grid for 2 min. Then, each grid was stained with uranyl acetate (1%, 5 μL) for 2 min. After the excess staining solution was drained off, the specimen was transferred for imaging by a transmission electron microscope (JEOL JEM-1400).

PDE2A3 (580–941) = target: T4, PDE2A3 (580–941) (Homo sapiens, UniProt O00408); experiment: PDE activity assay, PDE2A3 catalytic domain; type: biochemical
T4 construct: PDE2A3 (580–941)
Experimental: as §1

PDE5A1 (535–860) = PDE5A1 (535–860) (Homo sapiens, UniProt O76074); experiment: PDE activity assay, PDE5A1 catalytic domain; type: biochemical
Experimental: as §1

PDE10A2 (448–789) = target: T5, PDE10A2 (448–789) (Homo sapiens, UniProt Q9Y233); experiment: PDE activity assay, PDE10A2 catalytic domain; type: biochemical
T5 construct: PDE10A2 (448–789)
Experimental: as §1

PDE4D2 (86–413) = target: T6, PDE4D2 (86–413) (Homo sapiens, UniProt Q08499); experiment: PDE activity assay, PDE4D2 catalytic domain; type: biochemical
T6 construct: PDE4D2 (86–413)
Experimental: as §1

PDE8A1 (480–820) = target: T7, PDE8A1 (480–820) (Homo sapiens, UniProt O60658); experiment: PDE activity assay, PDE8A1 catalytic domain; type: biochemical
T7 construct: PDE8A1 (480–820)
Experimental: as §1

PDE7A1 (130–482) = target: T8, PDE7A1 (130–482) (Homo sapiens, UniProt Q13946); experiment: PDE activity assay, PDE7A1 catalytic domain; type: biochemical
T8 construct: PDE7A1 (130–482)
Experimental: as §1

PDE3A (679–1087) = target: T9, PDE3A (679–1087) (Homo sapiens, UniProt Q14432); experiment: PDE activity assay, PDE3A catalytic domain; type: biochemical
T9 construct: PDE3A (679–1087)
Experimental: as §1

PDE1B2 (10–487) = target: T10, PDE1B2 (10–487) (Homo sapiens, UniProt Q01064); experiment: PDE activity assay, PDE1B2 catalytic domain; type: biochemical
T10 construct: PDE1B2 (10–487)
Experimental: as §1

[5] = Lipid-water distribution coefficient, shake-flask 1-octanol/water; type: physicochemical; conditions: 1-octanol/water (1:1), means of at least three independent tests
[6] = PBS:EtOH (70:30), mean ± SD of three independent experiments

T1 sequence (O76083 241-566): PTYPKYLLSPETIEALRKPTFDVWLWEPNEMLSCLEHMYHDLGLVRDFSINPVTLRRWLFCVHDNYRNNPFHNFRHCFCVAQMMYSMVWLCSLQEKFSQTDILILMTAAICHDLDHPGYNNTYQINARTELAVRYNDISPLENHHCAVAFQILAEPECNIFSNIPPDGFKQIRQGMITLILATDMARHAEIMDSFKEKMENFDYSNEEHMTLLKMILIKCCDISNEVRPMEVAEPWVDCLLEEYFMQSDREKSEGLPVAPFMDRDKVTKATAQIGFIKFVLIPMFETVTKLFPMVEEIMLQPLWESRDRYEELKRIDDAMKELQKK
T2 sequence (P05067 672-713 limits assumed): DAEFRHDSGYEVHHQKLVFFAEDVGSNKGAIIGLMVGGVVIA
T8 sequence (Q13946 130-482): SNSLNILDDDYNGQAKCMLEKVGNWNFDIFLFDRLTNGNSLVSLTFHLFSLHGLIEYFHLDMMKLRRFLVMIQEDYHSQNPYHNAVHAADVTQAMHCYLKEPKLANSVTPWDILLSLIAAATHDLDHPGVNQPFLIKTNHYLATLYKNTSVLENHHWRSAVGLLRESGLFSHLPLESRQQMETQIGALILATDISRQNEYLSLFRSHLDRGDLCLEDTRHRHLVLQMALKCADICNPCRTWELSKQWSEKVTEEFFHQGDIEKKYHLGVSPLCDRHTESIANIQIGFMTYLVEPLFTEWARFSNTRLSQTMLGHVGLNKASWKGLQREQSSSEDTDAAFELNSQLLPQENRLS
T10 sequence (Q01064 10-487 isoform Q01064-2): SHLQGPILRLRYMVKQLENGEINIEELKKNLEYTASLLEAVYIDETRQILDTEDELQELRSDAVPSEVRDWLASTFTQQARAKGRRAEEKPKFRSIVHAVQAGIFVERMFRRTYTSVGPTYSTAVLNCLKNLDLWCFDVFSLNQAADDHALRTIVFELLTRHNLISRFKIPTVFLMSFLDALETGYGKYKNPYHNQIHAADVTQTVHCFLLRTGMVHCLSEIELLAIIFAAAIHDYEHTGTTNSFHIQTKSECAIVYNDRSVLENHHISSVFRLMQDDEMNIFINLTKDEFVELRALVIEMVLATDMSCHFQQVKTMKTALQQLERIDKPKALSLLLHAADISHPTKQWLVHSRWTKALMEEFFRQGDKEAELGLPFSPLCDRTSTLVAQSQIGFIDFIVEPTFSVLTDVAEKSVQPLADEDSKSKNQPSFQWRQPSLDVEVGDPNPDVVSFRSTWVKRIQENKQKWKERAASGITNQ
T9 sequence (Q14432 679-1087): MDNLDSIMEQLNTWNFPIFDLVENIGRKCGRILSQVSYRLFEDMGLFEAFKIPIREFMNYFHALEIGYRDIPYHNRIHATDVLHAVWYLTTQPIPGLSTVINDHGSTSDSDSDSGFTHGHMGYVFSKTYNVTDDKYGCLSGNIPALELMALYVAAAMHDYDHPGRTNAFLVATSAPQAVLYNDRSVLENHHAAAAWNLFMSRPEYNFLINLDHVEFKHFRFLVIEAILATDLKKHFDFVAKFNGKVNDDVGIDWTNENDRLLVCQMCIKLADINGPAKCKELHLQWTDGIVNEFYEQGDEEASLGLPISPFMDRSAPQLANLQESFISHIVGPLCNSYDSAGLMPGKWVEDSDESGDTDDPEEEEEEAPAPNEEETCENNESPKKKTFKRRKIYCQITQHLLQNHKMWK
T4 sequence (O00408 580-941): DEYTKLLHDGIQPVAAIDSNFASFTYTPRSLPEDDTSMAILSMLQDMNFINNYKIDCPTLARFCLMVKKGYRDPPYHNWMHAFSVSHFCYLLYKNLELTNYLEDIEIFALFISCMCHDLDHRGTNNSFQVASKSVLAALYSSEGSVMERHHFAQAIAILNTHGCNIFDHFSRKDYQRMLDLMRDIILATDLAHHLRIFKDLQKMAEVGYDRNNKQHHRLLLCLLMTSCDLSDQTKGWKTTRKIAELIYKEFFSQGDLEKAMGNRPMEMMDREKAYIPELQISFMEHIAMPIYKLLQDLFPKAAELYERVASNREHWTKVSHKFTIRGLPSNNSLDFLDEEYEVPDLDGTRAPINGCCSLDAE
T7 sequence (O60658 480-820): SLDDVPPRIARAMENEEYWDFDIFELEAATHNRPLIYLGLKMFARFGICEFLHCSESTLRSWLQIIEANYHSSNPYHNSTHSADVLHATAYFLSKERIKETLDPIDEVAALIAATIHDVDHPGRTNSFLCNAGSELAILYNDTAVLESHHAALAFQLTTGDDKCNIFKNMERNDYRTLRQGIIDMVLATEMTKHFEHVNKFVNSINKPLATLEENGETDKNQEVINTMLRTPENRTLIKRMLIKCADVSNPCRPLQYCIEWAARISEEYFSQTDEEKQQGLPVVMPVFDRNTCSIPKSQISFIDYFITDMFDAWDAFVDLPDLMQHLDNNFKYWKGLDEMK
T6 sequence (Q08499 388-715): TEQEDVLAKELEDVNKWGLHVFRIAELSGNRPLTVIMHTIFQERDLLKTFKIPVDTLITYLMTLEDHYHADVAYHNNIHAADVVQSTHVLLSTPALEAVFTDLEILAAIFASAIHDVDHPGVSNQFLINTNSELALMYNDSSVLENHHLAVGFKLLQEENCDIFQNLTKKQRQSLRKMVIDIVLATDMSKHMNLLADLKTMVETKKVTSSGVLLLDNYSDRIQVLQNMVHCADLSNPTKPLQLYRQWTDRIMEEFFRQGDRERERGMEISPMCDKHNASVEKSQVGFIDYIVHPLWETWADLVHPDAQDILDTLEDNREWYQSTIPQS
T5 sequence (Q9Y233 714-1055): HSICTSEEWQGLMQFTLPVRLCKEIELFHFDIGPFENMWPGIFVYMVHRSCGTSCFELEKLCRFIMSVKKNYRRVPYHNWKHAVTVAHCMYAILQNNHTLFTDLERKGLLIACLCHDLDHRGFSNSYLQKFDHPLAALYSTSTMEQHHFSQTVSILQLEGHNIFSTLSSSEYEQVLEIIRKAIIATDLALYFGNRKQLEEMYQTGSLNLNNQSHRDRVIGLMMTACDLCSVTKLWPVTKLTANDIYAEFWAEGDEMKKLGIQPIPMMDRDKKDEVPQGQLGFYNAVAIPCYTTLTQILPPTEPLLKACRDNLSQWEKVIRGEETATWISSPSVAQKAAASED
T3 sequence (P05067 672-713 limits assumed): as the sequence (P05067 672-713 limits assumed) above

With `C[C@@H](NCc1ccccn1)c1nc2c(cnn2C2CCCC2)c(=O)[nH]1` [Compound 26] the IC50 (PDE9A2 (181–506)) was 77 ± 3 nM and the ORAC [1] was 0 μmol of Trolox equiv/μmol tested compound.
In the case of `COc1ccc(/C=N/[C@H](C)c2nc3c(cnn3C3CCOCC3)c(=O)[nH]2)c(O)c1` [Compound 14], the IC50 (PDE9A2 (181–506)) is reported as 12 ± 1 nM and the ORAC [1] is reported as 0.22 ± 0.12 μmol of Trolox equiv/μmol tested compound.
In the case of `COc1ccc(O)c(CN[C@H](C)c2nc3c(cnn3C3CCCC3)c(=O)[nH]2)c1` [Compound 19], the IC50 (PDE9A2 (181–506)) is reported as 33 ± 3 nM and the ORAC [1] is reported as 3.54 ± 0.25 μmol of Trolox equiv/μmol tested compound.
In the case of `C[C@@H](NCc1cc(N(C)C)ccc1O)c1nc2c(cnn2C2CCCC2)c(=O)[nH]1` [Compound 24], the IC50 (PDE9A2 (181–506)) is reported as 47 ± 3 nM and the ORAC [1] is reported as 5.62 ± 0.02 μmol of Trolox equiv/μmol tested compound.
In the case of `C[C@@H](NCc1cccc(Br)n1)c1nc2c(cnn2C2CCCC2)c(=O)[nH]1` [Compound 29], the IC50 (PDE9A2 (181–506)) is reported as 38 ± 3 nM, the “inhibitory ratio of Cu^2+-induced Aβ1-42 aggregation (ThT)” value (shortened to “inhibitory ratio”) (Aβ1-42 [2]) is reported as 59.1% and the ORAC [1] is reported as 0 μmol of Trolox equiv/μmol tested compound.
With `C[C@@H](/N=C/c1cccc(Br)n1)c1nc2c(cnn2C2CCCC2)c(=O)[nH]1` [Compound 28] the IC50 (PDE9A2 (181–506)) was 1160 ± 90 nM and the ORAC [1] was 0 μmol of Trolox equiv/μmol tested compound.
In the case of `COc1ccc(CN[C@H](C)c2nc3c(cnn3C3CCOCC3)c(=O)[nH]2)c(O)c1` [Compound 17], the IC50 (PDE9A2 (181–506)) is reported as 51 ± 2 nM, the Papp at 10 h, 100 μg/mL [3, 6] is reported as 6.54 ± 0.76 ×10⁻⁶ cm/s and the “prediction of penetration into the CNS” value [3] is reported as “CNS+ (Compounds of high BBB permeation (CNS+) Pe > 4.7)”. For the same molecule, the ORAC [1] was 5.13 ± 0.22 μmol of Trolox equiv/μmol tested compound.
For `CN(C)CCCN1c2ccccc2Sc2ccc(Cl)cc21` [Chlorpromazine, reference compound], the Papp at 10 h, 100 μg/mL [3] was 6 ± 0.3 ×10⁻⁶ cm/s.
For `Oc1c(I)cc(Cl)c2cccnc12` [CQ, clioquinol, reference compound], the “disaggregation of Cu^2+-induced Aβ1-42 fibrils (ThT)” value (Aβ1-42 fibrils) was 50.9%, the “inhibitory ratio” value (Aβ1-42 [2]) was 52.5% and the “oxygen radical absorbance capacity, ORAC-FL value” [1] was 0.62 ORAC-FL units. The “Aβ fibrils by TEM, disaggregation of preformed fibrils” value (Aβ1-42 [4]) was “drastically reduced the amount of Aβ fibrils” and the “Aβ fibrils by TEM, inhibition of Cu^2+-induced aggregation” value (Aβ1-42 [4]) was “fewer Aβ fibrils were detected”.
In the case of `COc1ccc2[nH]cc(CCNC(C)=O)c2c1` [melatonin, reference compound], the “oxygen radical absorbance capacity, ORAC-FL value” [1] is reported as 2.00 ORAC-FL units.
For `C[C@@H](NCc1cc(F)ccc1O)c1nc2c(cnn2C2CCCC2)c(=O)[nH]1` [Compound 22], the IC50 (PDE9A2 (181–506)) was 31 ± 1 nM, the IC50 (PDE2A3 (580–941)) was 13000 nM and the “fold of selectivity of PDE9 over PDE2A3” value (PDE2A3 (580–941)) was 421 fold. For the same molecule, the IC50 (PDE5A1 (535–860)) was 1600 nM, the “fold of selectivity of PDE9 over PDE5A1” value (PDE5A1 (535–860)) was 50 fold and the IC50 (PDE10A2 (448–789)) was 33000 nM. For the same molecule, the Papp at 10 h, 100 μg/mL [3, 6] was 33.2 ± 4.76 ×10⁻⁶ cm/s, the “prediction of penetration into the CNS” value [3] was “CNS+ (Compounds of high BBB permeation (CNS+) Pe > 4.7)” and the IC50 (PDE4D2 (86–413)) was 11000 nM. For the same molecule, the “fold of selectivity of PDE9 over PDE4D2” value (PDE4D2 (86–413)) was 355 fold, the IC50 (PDE8A1 (480–820)) was > 50000 nM and the “fold of selectivity of PDE9 over PDE8A1” value (PDE8A1 (480–820)) was > 1598 fold. The IC50 (PDE7A1 (130–482)) was > 40000 nM, the “fold of selectivity of PDE9 over PDE7A1” value (PDE7A1 (130–482)) was > 1278 fold and the IC50 (PDE3A (679–1087)) was > 10000 nM. For the same molecule, the “fold of selectivity of PDE9 over PDE3A” value (PDE3A (679–1087)) was 323 fold, the IC50 (PDE1B2 (10–487)) was 7000 nM and the “fold of selectivity of PDE9 over PDE1B2” value (PDE1B2 (10–487)) was 234 fold. For the same molecule, the logP at 30 min [5] was 1.51 and the ORAC [1] was 5.52 ± 0.51 μmol of Trolox equiv/μmol tested compound.
In the case of `C[C@H](NCc1ccccc1O)c1nc2c(cnn2C2CCCC2)c(=O)[nH]1` [Compound 18], the IC50 (PDE9A2 (181–506)) is reported as 114 ± 7 nM and the ORAC [1] is reported as 4.51 ± 0.43 μmol of Trolox equiv/μmol tested compound.
With `C[C@@H](NCc1cc(Cl)ccc1O)c1nc2c(cnn2C2CCCC2)c(=O)[nH]1` [Compound 21] the IC50 (PDE9A2 (181–506)) was 47 ± 5 nM, the “inhibitory ratio” value (Aβ1-42 [2]) was 65.7% and the ORAC [1] was 5.84 ± 0.50 μmol of Trolox equiv/μmol tested compound.
With `C[C@@H](NCc1ccccc1O)c1nc2c(cnn2C2CCCC2)c(=O)[nH]1` [Compound 15] the IC50 (PDE9A2 (181–506)) was 58 ± 2 nM and the ORAC [1] was 4.75 ± 0.72 μmol of Trolox equiv/μmol tested compound.
In the case of `Cc1cccc(CN[C@H](C)c2nc3c(cnn3C3CCCC3)c(=O)[nH]2)n1` [Compound 27], the IC50 (PDE9A2 (181–506)) is reported as 60 ± 2 nM and the ORAC [1] is reported as 0 μmol of Trolox equiv/μmol tested compound.
With `C[C@@H](/N=C/c1ccccc1O)c1nc2c(cnn2C2CCCC2)c(=O)[nH]1` [Compound 12] the IC50 (PDE9A2 (181–506)) was 211 ± 6 nM and the ORAC [1] was 0.23 ± 0.02 μmol of Trolox equiv/μmol tested compound.
In the case of `COc1cccc(CN[C@H](C)c2nc3c(cnn3C3CCCC3)c(=O)[nH]2)c1O` [Compound 20], the IC50 (PDE9A2 (181–506)) is reported as 33 ± 4 nM and the ORAC [1] is reported as 3.50 ± 0.01 μmol of Trolox equiv/μmol tested compound.
With `COc1ccc(/C=N/[C@H](C)c2nc3c(cnn3C3CCCC3)c(=O)[nH]2)c(O)c1` [Compound 13] the IC50 (PDE9A2 (181–506)) was 35 ± 3 nM and the ORAC [1] was 0.15 ± 0.01 μmol of Trolox equiv/μmol tested compound.
For `C[C@H](NCc1ccccn1)c1nc2c(cnn2C2CCCC2)c(=O)[nH]1` [Compound 25], the IC50 (PDE9A2 (181–506)) was 310 ± 13 nM and the ORAC [1] was 0 μmol of Trolox equiv/μmol tested compound.
With `C[C@@H](NCc1cc([N+](=O)[O-])ccc1O)c1nc2c(cnn2C2CCCC2)c(=O)[nH]1` [Compound 23] the IC50 (PDE9A2 (181–506)) was 36 ± 4 nM and the ORAC [1] was 1.02 ± 0.05 μmol of Trolox equiv/μmol tested compound.
